{"source": "patent US10590393B2", "about": "“Retinoic acid enhanced human stem cell derived blood brain barrier model” (Wisconsin Alumni Research Foundation, priority 2012, dated 2020)", "key": {"[1]": {"tested_on": "differentiating IMR90-4 hiPSCs", "test": "Adherens junction and tight junction protein expression (immunocytochemistry, flow cytometry, western blot)", "type": "cell-based, human", "method": "Cells were washed twice with phosphate-buffered saline (PBS; Sigma) and fixed with either 100% ice-cold methanol for 10 min or 4% paraformaldehyde for 15 min. Cells were then washed twice with PBS and blocked in PBS containing 40% goat serum (40% PBSG; Sigma) at 20° C. for 30 min. In some instances, 0.1% Triton X-100 (TX-100) was included during this step to permeabilize the cells. Cells were then washed once with PBS and incubated with primary antibodies against occludin (1:100; Invitrogen), claudin-5 (1:100; Invitrogen), VE-cadherin (1:25; Santa Cruz Biotechnology), von Willebrand Factor (vWF; 1:100; Dako), p-glycoprotein (clone F4; 1:25; Lab Vision), breast cancer resistance protein (BCRP, clone 5D3; 1:25; Millipore), multidrug resistance protein 1 (MRP1, clone QCRL-1; 1:100; Millipore), in 40% PBSG at 4° C. overnight. Cells were washed three times with PBS and incubated with secondary antibodies (goat anti-rabbit Texas Red and goat anti-mouse Alexa Fluor 488; 1:500; Invitrogen) for 1 h at 20° C. […] For quantitative analysis of BMEC integrity, the percentage of cells expressing frayed tight junctions was counted using BMECs immunolabeled for occludin. […] A minimum of four separate frames and 1000 total cells were counted to obtain a percentage of frayed tight junctions.\nCells were washed once with PBS and dissociated with ACCUTASE for 5 min, then spun down and fixed in 2% paraformaldehyde for 15 min or 100% methanol for 10 min at 20° C. […] After another two washes with PBS containing 5% FBS, cells were analyzed on a FACSCALIBER flow cytometer and the IgG control was used to quantify positive labeling. Elevated GLUT-1 expression was quantified using a GLUT-1/forward scatter plot referenced to baseline GLUT-1 expression measured at day 4 of UM culture.\nCells were washed once with PBS and lysed with RIPA buffer (Pierce, Rockford, Ill., USA). Protein concentration was quantified via BCA assay (Pierce) and proteins were then resolved by SDS-PAGE on 4-20% Tris-Glycine gradient gels (Invitrogen). […] Protein levels were detected via a SUPERSIGNAL West Pico Chemiluminescent Substrate (Pierce)."}, "[2]": {"tested_on": "DF19-9-11T-derived BMECs", "test": "TEER of RA-treated DF19-9-11T-derived BMECs", "type": "cell-based, human", "method": "IMR90-4 and DF19-9-11T hiPSCs and H9 hESCs were maintained between passages 26-42 on […] (BD Biosciences) in mTeSR1™ medium ([…] Technologies) or on irradiated mouse embryonic fibroblasts (MEFs) in standard unconditioned medium (Dulbecco's Modified Eagle's Medium [DMEM]/Ham's F12 containing 20% Knockout Serum Replacer (Invitrogen), 1×MEM nonessential amino acids (Invitrogen), 1 mM L-glutamine (Sigma), 0.1 mM β-mercaptoethanol (Sigma), and human basic fibroblast growth factor (bFGF; 100 ng/mL for hiPSCs and 4 ng/mL for hESCs; Waisman Clinical Biomanufacturing Facility, University of Wisconsin-Madison)). Prior to differentiation, cells were passaged onto Matrigel (BD Biosciences) in mTeSR1 medium ([…] Technologies). After 2-3 days in mTeSR1, medium was switched to unconditioned medium (UM) lacking bFGF for 6 days. Human endothelial serum-free medium (hESFM; Invitrogen) supplemented with 20 ng/mL bFGF (R&D Systems) and 1% platelet-poor plasma derived bovine serum (Biomedical Technologies, Inc.) was then added for an additional 2-4 days.\nAll-trans RA (Sigma) was included at concentrations of 1-10 μM depending on the experiment. Equivalent DMSO was used as a vehicle control in some experiments. Cells were then dissociated with Versene (Invitrogen) and plated onto 12-well tissue culture polystyrene plates or 1.12 cm^2 Transwell-Clear® permeable inserts (0.4 μm pore size) coated with a mixture of collagen IV (400 μg/mL; Sigma) and fibronectin (100 μg/mL; Sigma). Culture plates were incubated with the coating for at least 30 min at 37° C., while the inserts were incubated for a minimum of 4 h at 37° C. hPSC-derived BMECs were then cultured in EC medium overnight (with or without RA). […] Also, our previous study used hPSCs exclusively maintained on MEFs.\nFIG. 5 dictates the timing of co-culture experiments. […] Trans-endothelial electrical resistance (TEER) was measured immediately prior to co-culture using an EVOM voltohmmeter (World Precision Instruments, Sarasota, Fla., USA) and approximately every 24 h thereafter as necessary."}}, "note": "Values joined by “and” are separate entries in the source; they are usually repeats but may differ in a detail not shown here. Identical values can stand only once."}
{"compound": "CC1=C(/C=C/C(C)=C/C=C/C(C)=C/C(=O)O)C(C)(C)CCC1", "note": "[RA, retinoic acid]", "values": [{"measurement": "decrease of the level of claudin-5 expression", "setting": "[1]; RA during 2 days of EC medium treatment", "value": 1.7, "unit": "fold"}, {"measurement": "increase of the level of occludin expression", "setting": "[1]; RA during 2 days of EC medium treatment, across biological replicates", "value": "1.8 to 2.9", "unit": "fold"}, {"measurement": "positive expression for VE-cadherin, claudin-5, and occludin", "setting": "[1]; purified RA-treated BMECs", "value": "95-98%"}, {"measurement": "Maximum TEER", "setting": "[2]; subculture: pericytes, co-culture phase: differentiated NPCs (11 days), 1% PDS", "value": "4738±303 Ω × cm^2 and 4738 ± 303 (2) Ω × cm^2"}, {"measurement": "Average TEER", "setting": "[2]; t = 24 h, between biological replicates", "value": "1707 ± 417 Ω × cm^2"}, {"measurement": "Maximum TEER", "setting": "[2]; t = 24 h, triplicate filters", "value": "1968±288 Ω × cm^2"}]}
